What was measured:
[1] = system: CYP enzymes in rat liver microsomes (RLM); experiment: Inhibition of 20-HETE production in rat liver microsomes (RLM); format: biochemical
In short: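 Test compounds were dissolved in DMSO, diluted in acetonitrile/DMSO (3:1), and 2 μl was mixed with 100 μl potassium phosphate buffer containing rat liver microsomes in a 96-well plate. Duplicate 30 μl aliquots received 15 μl of 400 μM substrate, were preheated at 37° C. for 10 minutes, then started with 15 μl of 6 mM NADPH for 25 minutes. LC-MS/MS measured 20-HETE formation.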

[2] = biological target: recombinant CYP4F2 (rCYP4F2) (Homo sapiens (Human), UniProt P78329); experiment: Inhibition of 20-HETE production by recombinant CYP4F2; format: biochemical
Description: (§1) Experimental principle: The inhibitory activity of 20-HETE production is evaluated by testing the inhibitory effects of the compound on human liver microsomes (HLM), rat liver microsomes (RLM), mouse liver microsomes (MLM), or […] CYP4 subtype enzymes (CYP4F2). This assay employs HLM, RLM, or MLM along with recombinant CYP4F2 (rCYP4F2) and recombinant CYP4A11 (rCYP4A11), which are […] CYP4 subtype enzymes, to detect the effects of the test compound at different concentrations on the metabolic rate of enzyme-specific substrates, to determine the inhibitory effects of the test compound on CYP enzymes in HLM, RLM, or MLM.
(§2) Experimental methods: Dissolve the test compound in DMSO, and subsequently dilute it with an acetonitrile and DMSO mixture (3:1). Add 2 μl of varying concentrations of the test compound and 100 μl of potassium phosphate buffer containing either liver microsomes or recombinant enzymes to a 96-well plate. After mixing well, transfer 30 μl to another well (in duplicate), add 15 μl of 400 μM substrate solution, and mix well again. Preheat at 37° C. for 10 minutes, and then add 15 μl of 6 mM NADPH and incubate at 37° C. for 25 minutes. After 25 minutes, add 160 μl of acetonitrile solution (containing 0.1 μg/ml internal standard) to stop the reaction. Mix well, centrifuge at 3500 g for 15 minutes, and then analyze the supernatant using LC-MS/MS.
(§3) Plot the compound concentration on the x-axis and the inhibition rate on the y-axis to draw the curve. Use GraphPad Prism 5 software to fit the curve and calculate the IC50. The formula is Y=Bottom+(Top−Bottom)/(1+10^((Log IC50−X)×HillSlope)). X represents the logarithmic concentration of the inhibitor, and Y represents the relative enzyme activity at a given inhibitor concentration (relative to the condition without the inhibitor).
(§4) Calculate the inhibition percentages at concentrations of 1000 nM, 500 nM, or 100 nM as well as the half-maximal inhibitory concentration (IC50) of the test compound from the above experiment.

[3] = biological target: recombinant CYP4A11 (rCYP4A11) (Homo sapiens (Human), UniProt Q02928); experiment: Inhibition of 20-HETE production by recombinant CYP4A11; format: biochemical
Description: as §1, §2, §3, §4

[4] = Pharmacokinetic (PK) experiment, oral administration in rats; format: in vivo, Male SD rats; conditions: 20 mg/kg
In short: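 Fasted male SD rats (180-250 g) received 20 mg/kg orally in 30% sulfobutylether-β-cyclodextrin. Tail-vein blood sampled 15 min to 24 h post-dose into K2-EDTA; plasma protein-precipitated with acetonitrile containing internal standard and analysed by LC-MS/MS.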

[5] = system: diet-induced obesity (DIO) mouse model; experiment: Experiment 3: compound 2, weight loss and blood glucose lowering in DIO mouse model; format: in vivo, Male C57BL/6J mice
Text: Experiment 3 was to study the effects of compound 2 on weight loss and blood glucose lowering in a diet-induced obesity (DIO) mouse model. Male C57BL/6J mice were purchased from Zhuhai BST Biotechnology Co., Ltd. and housed in a barrier system animal facility. Animals were randomly divided into 3 groups: normal control group, DIO model control group, and DIO model compound 2 treatment group, with 6-8 animals per group. The model control group and treatment group were first fed with high-fat diet (HFD) for 9 weeks (day 63), and then the treatment group was orally administered with compound 2 at a dose of 30 mg/kg once daily for 8 consecutive weeks, while continuing to receive HFD. Animal weights were measured weekly, and on the last day of treatment, they were fasted overnight but allowed access to water before an oral glucose tolerance test (OGTT).

[6] = system: diet-induced obesity (DIO) mouse model; experiment: Experiment 4: weight loss of compound 2 compared with semaglutide in DIO mouse model; format: in vivo, Male C57BL/6J mice
Text: Experiment 4 was to compare the weight loss effects of compound 2 with that of semaglutide in a diet-induced obesity (DIO) mouse model. Male C57BL/6J mice were purchased from Vital River Laboratories (Shanghai) Co., Ltd. and housed in a barrier system animal facility. Animals were randomly divided into 4 groups: normal control group, DIO model control group, compound 2 treatment group, and semaglutide treatment group, with 6 animals per group. The model control group and treatment groups were first fed with high-fat diet (HFD) for 18 weeks, after which the treatment groups were administered with compound 2 or semaglutide, respectively. Compound 2 was administered orally at a dose of 30 mg/kg once daily for 14 consecutive weeks, while semaglutide was administered subcutaneously at a dose of 30 nmol/kg once daily. After 7 weeks of semaglutide treatment, the semaglutide treatment group was switched to compound 2 treatment for another 7 weeks.

20-HETE = experiment: Experiment 6: level of 20-HETE in DIO rat model; format: in vivo, Male SD rats; conditions: DIO rats, single oral dose 25 mg/kg, 8 hours; most pronounced in the kidneys
Description: Experiment 6 was to investigate the effect of compound 2 on regulating the level of 20-HETE in a diet-induced obesity (DIO) rat model. Male SD rats were purchased from Guangdong Vital River Laboratory Animal Technology Co., Ltd. and housed in a barrier system animal facility. After 14 weeks of high-fat diet (HFD) induction, compound 2 was administered at a dose of 25 mg/kg once, and samples were collected after 8 hours to detect the level of 20-HETE. A solvent control group was also set up simultaneously, with 3 animals per group.

[7] = 30 mg/kg orally once daily for 8 weeks, DIO mice

Sequence of recombinant CYP4F2 (rCYP4F2) (P78329 5-520): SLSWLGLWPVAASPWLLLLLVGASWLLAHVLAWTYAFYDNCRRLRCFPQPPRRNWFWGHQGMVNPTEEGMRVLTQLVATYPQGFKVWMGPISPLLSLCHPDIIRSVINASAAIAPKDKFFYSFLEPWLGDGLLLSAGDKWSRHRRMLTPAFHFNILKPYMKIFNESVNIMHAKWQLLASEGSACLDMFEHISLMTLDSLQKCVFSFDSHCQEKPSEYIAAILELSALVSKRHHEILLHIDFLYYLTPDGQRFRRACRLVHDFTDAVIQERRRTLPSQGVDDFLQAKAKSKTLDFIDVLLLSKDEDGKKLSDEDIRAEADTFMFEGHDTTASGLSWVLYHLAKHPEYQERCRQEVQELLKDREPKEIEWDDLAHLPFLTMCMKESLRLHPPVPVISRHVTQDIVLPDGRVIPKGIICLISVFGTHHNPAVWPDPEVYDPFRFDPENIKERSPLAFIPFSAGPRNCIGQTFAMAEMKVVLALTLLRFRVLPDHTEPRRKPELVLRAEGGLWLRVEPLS
Sequence of recombinant CYP4A11 (rCYP4A11) (Q02928 5-519): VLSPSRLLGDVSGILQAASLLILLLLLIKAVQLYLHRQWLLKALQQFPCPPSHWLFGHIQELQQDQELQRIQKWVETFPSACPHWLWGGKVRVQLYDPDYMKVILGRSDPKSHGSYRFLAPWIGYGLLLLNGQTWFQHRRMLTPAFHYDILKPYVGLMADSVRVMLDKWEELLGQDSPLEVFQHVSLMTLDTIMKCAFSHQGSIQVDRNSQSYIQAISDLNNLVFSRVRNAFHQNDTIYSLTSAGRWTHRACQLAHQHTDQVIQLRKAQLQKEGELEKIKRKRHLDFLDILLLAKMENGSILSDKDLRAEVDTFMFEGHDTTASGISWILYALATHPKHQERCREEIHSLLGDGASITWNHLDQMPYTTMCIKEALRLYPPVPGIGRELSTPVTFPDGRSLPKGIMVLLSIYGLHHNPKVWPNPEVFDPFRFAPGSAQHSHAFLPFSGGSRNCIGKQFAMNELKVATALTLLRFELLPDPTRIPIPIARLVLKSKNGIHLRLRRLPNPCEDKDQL

IC50 [1]: 103 nM
RLM (% inh @ 500 nM) ([1]; 500 nM): 59.38%
IC50 [2]: 15.8 nM
IC50 [3]: 33.2 nM
AUC(0-inf) ([4]; male, SD, rat, plasma): 120 µg·h/mL
Cmax ([4]; male, SD, rat, plasma): 10100 ng/mL
Tmax ([4]; male, SD, rat, plasma): 3.33 h
half-life ([4]; male, SD, rat, plasma): 5.2 h
AUC(0-t) ([4]; male, SD, rat, plasma, read-out: AUC0-24): 115 µg·h/mL
SMILES: O=C1CCCN1CC1CCN(c2ccc(-c3cn[nH]c3)cc2F)CC1 [Compound 2, 1-((1-(2-fluoro-4-(1H-pyrazol-4-yl)phenyl)piperidin-4-yl)methyl)pyrrolidin-2-one]
absorption and blood exposure after oral administration (in words) [4]: well absorbed and exhibit high blood exposure
fasting blood glucose [5, 7]: inhibit the increase in fasting blood glucose
glucose metabolism (OGTT) [5, 7]: enhance their glucose metabolism
food intake compared to the DIO model control group ([5]; 30 mg/kg orally once daily, after 2 weeks): no difference
difference in weight gain relative to the DIO model control group ([5]; 30 mg/kg orally once daily, after 8 weeks): 47.1%
body weight decrease, of pre-administration weight ([5]; 30 mg/kg orally once daily, after 8 weeks, DIO mice): 20.8%
food intake ([5]; 30 mg/kg orally once daily, first 2 weeks of administration): decreased
maximum weight loss effect, decrease compared to pre-administration weight ([6]; 30 mg/kg orally once daily, after 6 weeks): approximately 36%
food intake ([6]; 30 mg/kg orally once daily, returned to control level in the 6th week): slightly decreased
body weight decrease, of pre-administration weight ([6]; 7 weeks semaglutide, then switched to compound 2 for 7 weeks): 33.6%
weight loss effect compared with semaglutide ([6]; DIO mouse model): greater weight loss effect than semaglutide
20-HETE levels in the liver, kidneys, and brain tissues compared to the solvent control group (20-HETE): varying degrees of decrease
